Laboratory results taken from patent publication US12122816B2, “Long acting peptide tyrosine tyrosine (PYY) analogs and methods of use” (Intarcia Therapeutics, Inc., priority 2020, dated 2024).
Starred links: 1 amine or outer side, 2 acyl side, 3 side chain; linkers in the order of their positions; H or OH if unused. Non-standard residues stand in square brackets, D forms with d. Residues, ends and D or L forms follow the SMILES beside them. Groups on a side chain read outwards from the residue. *: point of attachment. C20 diacid = O=C(O)CCCCCCCCCCCCCCCCCCC(=O)*; γGlu = O=C(O)[C@H](CCC(=O)[*:2])N[*:1]; NMeY = CN[C@@H](Cc1ccc(O)cc1)C(=O)O

Experiments:
Assay in all cases: NPY receptor functional assay (cAMP, HEK-CNG cells, ACTOne membrane potential dye)
Type in all cases: cell-based
human Y2 receptor = biological target: T1, human Y2 receptor (Homo sapiens, UniProt P49146); conditions: NPY2R pEC50, HEK-CNG cells; standard PYY(3-36); species (human or rat) not given
T1 sequence (P49146 1-381): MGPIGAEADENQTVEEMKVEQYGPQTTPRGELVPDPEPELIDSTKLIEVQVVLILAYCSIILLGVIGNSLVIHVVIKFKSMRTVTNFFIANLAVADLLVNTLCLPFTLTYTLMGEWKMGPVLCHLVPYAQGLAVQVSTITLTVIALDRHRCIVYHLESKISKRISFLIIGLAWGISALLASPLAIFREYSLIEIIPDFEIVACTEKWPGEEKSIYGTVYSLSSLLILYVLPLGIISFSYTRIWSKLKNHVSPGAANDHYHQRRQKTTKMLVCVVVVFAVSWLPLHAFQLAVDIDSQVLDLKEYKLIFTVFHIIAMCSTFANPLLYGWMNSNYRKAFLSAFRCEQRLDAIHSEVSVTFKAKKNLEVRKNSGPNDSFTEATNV
Source text: (§1) The NPY family of G-protein coupled receptors include Y1, Y2, Y4, and Y5 in humans and rats. […] Following agonist binding, the receptor-G protein complex activates a downstream intracellular signaling cascade which leads to inhibition of adenylate cyclase and a reduction in intracellular cAMP levels.
(§2) HEK-CNG cells stably expressing the human or rat Y1, Y2, Y4 or Y5 receptors (Codex Biosolutions) were used to characterize the functional potency of peptide agonists using the ActOne™ membrane potential dye kit (Codex Biosolutions). In addition to each NPY receptor, each cell line encodes a proprietary exogenous Cyclic Nucleotide-Gated (CNG) channel (Codex Biosolutions). The channel is activated by elevated intracellular levels of cAMP, resulting in ion flux and cell membrane depolarization which can be detected with a calcium sensitive dye or fluorescent membrane potential (MP) dye. Cells were carried in growth media containing 90% DMEM, 10% FBS, 250 mcg/mL G418 and 1 mcg/mL puromycin for no more than 15 passages.
(§3) Prior to testing, cells were counted and dispensed at 14,000 cells per well (Y1, Y4 and Y5) or 28,000 cells per well (Y2) into black 384 well Poly-D-Lysine plates at 20 mcL per well. Covered plates were then incubated at room temperature for 30 minutes followed by an overnight incubation at 37° C. in 5% C02. The following day, media was removed and wells were washed once with 40 mcL Dulbecco's phosphate buffered saline. […] Ten microliters of experimental peptide or peptide standard was added in triplicate to wells and incubated for 50 minutes at room temperature in the dark. Following this incubation step, plates were read again as before (final read).
(§4) NPY receptor activation, leading to a reduction in intracellular cAMP levels, is detected as a decrease in isoproteranol induced fluorescent signal. Peptide standard and experimental values were initially transformed in excel using the formula: final read/initial read. Transformed values were then normalized to receptor specific standard values (1×10−13 M minimum and 1×10−7 M maximum) using the formula: (test value−standard minavg)/(standard maxavg−standard minavg)*100. […] Normalized data was analyzed from triplicate tests and used to estimate the EC50 for each test peptide on each receptor. Data was fit in GraphPad Prism software (v8.2.1) using a 3-parameter logistic curve model: Y=Bottom+(Top−Bottom)/(1+10^((LogEC50−X))). EC50 values were converted to pEC50 values using the formula: pEC50=−Log(EC50).

human Y4 receptor = human Y4 receptor (Homo sapiens, UniProt P50391); conditions: standard PP, species (human or rat) not given
Source text: as §1, §2, §3, §4

human Y5 receptor = biological target: T2, human Y5 receptor (Homo sapiens, UniProt Q15761); conditions: NPY5R pEC50, HEK-CNG cells; standard NPY; species (human or rat) not given
T2 sequence (Q15761 1-445): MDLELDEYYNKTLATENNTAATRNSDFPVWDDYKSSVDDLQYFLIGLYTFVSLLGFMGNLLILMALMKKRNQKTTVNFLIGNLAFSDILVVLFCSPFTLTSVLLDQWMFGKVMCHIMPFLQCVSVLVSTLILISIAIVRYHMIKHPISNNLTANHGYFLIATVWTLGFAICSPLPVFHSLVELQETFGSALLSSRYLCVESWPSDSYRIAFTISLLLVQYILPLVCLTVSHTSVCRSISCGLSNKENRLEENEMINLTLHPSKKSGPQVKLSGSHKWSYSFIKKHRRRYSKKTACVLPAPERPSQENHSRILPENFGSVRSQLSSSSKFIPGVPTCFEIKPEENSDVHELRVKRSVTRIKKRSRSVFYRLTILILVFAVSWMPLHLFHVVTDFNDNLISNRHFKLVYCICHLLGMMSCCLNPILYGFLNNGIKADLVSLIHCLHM
Source text: as §1, §2, §3, §4

Sequence of human Y4 receptor (P50391 whole entry): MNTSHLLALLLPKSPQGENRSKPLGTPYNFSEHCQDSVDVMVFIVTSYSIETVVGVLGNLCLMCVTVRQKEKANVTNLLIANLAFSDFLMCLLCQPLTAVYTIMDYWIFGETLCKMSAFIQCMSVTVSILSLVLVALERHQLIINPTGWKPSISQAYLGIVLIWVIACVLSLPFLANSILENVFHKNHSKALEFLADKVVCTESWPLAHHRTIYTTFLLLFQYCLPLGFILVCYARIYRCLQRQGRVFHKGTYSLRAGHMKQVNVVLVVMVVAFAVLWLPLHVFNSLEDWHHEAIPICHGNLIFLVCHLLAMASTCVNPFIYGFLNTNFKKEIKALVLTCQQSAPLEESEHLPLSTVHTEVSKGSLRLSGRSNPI

Row | SMILES | EC50 (human Y2 receptor) | NPY4R pEC50 (human Y4 receptor) | EC50 (human Y5 receptor)
1 | CC(C)C[C@H](NC(=O)[C@H](Cc1ccc(O)cc1)NC(=O)[C@H](Cc1c[nH]cn1)NC(=O)[C@H](CCCNC(=N)N)NC(=O)[C@H](C)NC(=O)[C@H](CC(=O)O)NC(=O)[C@H](C)NC(=O)[C@H](Cc1ccc(O)cc1)NC(=O)[C@H](Cc1ccc(O)cc1)NC(=O)[C@H](CCCNC(=N)N)NC(=O)[C@H](CCCCNC(=O)CC[C@H](NC(=O)CC[C@H](NC(=O)CCCCCCCCCCCCCCCCCCC(=O)O)C(=O)O)C(=O)O)NC(=O)[C@H](Cc1c[nH]c2ccccc12)NC(=O)[C@H](CCC(=O)O)NC(=O)[C@H](CCC(=O)O)NC(=O)[C@@H]1CCCN1C(=O)[C@H](CO)NC(=O)[C@H](C)NC(=O)[C@H](CC(=O)O)NC(=O)[C@H](CCCCN)NC(=O)CNC(=O)[C@@H]1CCCN1C(=O)[C@H](C)NC(=O)[C@H](CCC(=O)O)NC(=O)[C@@H]1CCCN1C(=O)[C@H](CCCCN)NC(=O)[C@@H]1CCCN1)C(=O)N[C@@H](CC(N)=O)C(=O)N[C@@H](Cc1c[nH]c2ccccc12)C(=O)N[C@@H](CC(C)C)C(=O)N[C@H](C(=O)N[C@@H](CCCNC(=N)N)C(=O)N[C@@H](CCC(N)=O)C(=O)N[C@@H](CCCNC(=N)N)C(=O)N(C)[C@@H](Cc1ccc(O)cc1)C(N)=O)[C@@H](C)O [Compound A9] | 0.251 nM | inactive | –
2 | CC(C)C[C@H](NC(=O)[C@H](CC(=O)O)NC(=O)[C@H](C)NC(=O)[C@H](Cc1ccc(O)cc1)NC(=O)[C@H](Cc1ccc(O)cc1)NC(=O)[C@H](CCCNC(=N)N)NC(=O)[C@H](CC(N)=O)NC(=O)[C@H](Cc1c[nH]c2ccccc12)NC(=O)[C@H](CCC(=O)O)NC(=O)[C@H](CCC(=O)O)NC(=O)[C@@H]1CCCN1C(=O)[C@H](CO)NC(=O)[C@H](C)NC(=O)[C@H](CC(=O)O)NC(=O)[C@H](CCCCN)NC(=O)CNC(=O)[C@@H]1CCCN1C(=O)[C@H](C)NC(=O)[C@H](CCC(=O)O)NC(=O)[C@@H]1CCCN1C(=O)[C@H](CCCCN)NC(=O)[C@@H]1CCCN1)C(=O)N[C@@H](CCCNC(=N)N)C(=O)N[C@@H](Cc1c[nH]cn1)C(=O)N[C@@H](Cc1ccc(O)cc1)C(=O)N[C@@H](CC(C)C)C(=O)N[C@@H](CC(N)=O)C(=O)N[C@@H](Cc1c[nH]c2ccccc12)C(=O)N[C@@H](CC(C)C)C(=O)N[C@H](C(=O)N[C@@H](CCCNC(=N)N)C(=O)N[C@@H](CCCCNC(=O)CC[C@H](NC(=O)CC[C@H](NC(=O)CCCCCCCCCCCCCCCCCCC(=O)O)C(=O)O)C(=O)O)C(=O)N[C@@H](CCCNC(=N)N)C(=O)N[C@@H](Cc1ccccc1)C(N)=O)[C@@H](C)O [Compound A50] | – | inactive | –
3 | CC(C)C[C@H](NC(=O)[C@H](CC(=O)O)NC(=O)[C@H](C)NC(=O)[C@H](Cc1ccc(O)cc1)NC(=O)[C@H](Cc1ccc(O)cc1)NC(=O)[C@H](CCCNC(=N)N)NC(=O)[C@H](CC(N)=O)NC(=O)[C@H](Cc1c[nH]c2ccccc12)NC(=O)[C@H](CCC(=O)O)NC(=O)[C@H](CCC(=O)O)NC(=O)[C@@H]1CCCN1C(=O)[C@H](CO)NC(=O)[C@H](C)NC(=O)[C@H](CC(=O)O)NC(=O)[C@H](CCCCN)NC(=O)CNC(=O)[C@@H]1CCCN1C(=O)[C@H](C)NC(=O)[C@H](CCC(=O)O)NC(=O)[C@@H]1CCCN1C(=O)[C@H](CCCCN)NC(=O)[C@@H]1CCCN1)C(=O)N[C@@H](CCCNC(=N)N)C(=O)N[C@@H](Cc1c[nH]cn1)C(=O)N[C@@H](Cc1ccc(O)cc1)C(=O)N[C@@H](CC(C)C)C(=O)N[C@@H](CCCCNC(=O)CC[C@H](NC(=O)CC[C@H](NC(=O)CCCCCCCCCCCCCCCCCCC(=O)O)C(=O)O)C(=O)O)C(=O)N[C@@H](Cc1c[nH]c2ccccc12)C(=O)N[C@@H](CC(C)C)C(=O)N[C@H](C(=O)N[C@@H](CCCNC(=N)N)C(=O)N[C@@H](CCC(N)=O)C(=O)N[C@@H](CCCNC(=N)N)C(=O)N[C@@H](Cc1ccccc1)C(N)=O)[C@@H](C)O [Compound A51] | – | inactive | –
4 | CC(C)C[C@H](NC(=O)[C@H](Cc1ccc(O)cc1)NC(=O)[C@H](Cc1c[nH]cn1)NC(=O)[C@H](CCCNC(=N)N)NC(=O)[C@H](C)NC(=O)[C@H](CC(=O)O)NC(=O)[C@H](C)NC(=O)[C@H](Cc1ccc(O)cc1)NC(=O)[C@H](Cc1ccc(O)cc1)NC(=O)[C@H](CCCNC(=N)N)NC(=O)[C@H](CC(N)=O)NC(=O)[C@H](CC(C)C)NC(=O)[C@H](CCC(=O)O)NC(=O)[C@H](CCC(=O)O)NC(=O)[C@@H]1CCCN1C(=O)[C@H](CO)NC(=O)[C@H](C)NC(=O)[C@H](CC(=O)O)NC(=O)[C@H](CCCCN)NC(=O)[C@H](CCCCNC(=O)CC[C@H](NC(=O)CC[C@H](NC(=O)CCCCCCCCCCCCCCCCCCC(=O)O)C(=O)O)C(=O)O)NC(=O)[C@@H]1CCCN1C(=O)[C@H](C)NC(=O)[C@H](CCC(=O)O)NC(=O)[C@@H]1CCCN1C(=O)[C@H](CCCCN)NC(=O)[C@@H]1CCCN1)C(=O)N[C@@H](CC(N)=O)C(=O)N[C@@H](Cc1c[nH]c2ccccc12)C(=O)N[C@@H](CC(C)C)C(=O)N[C@H](C(=O)N[C@@H](CCCNC(=N)N)C(=O)N[C@@H](CCC(N)=O)C(=O)N[C@@H](CCCNC(=N)N)C(=O)N(C)[C@@H](Cc1ccc(O)cc1)C(N)=O)[C@@H](C)O [Compound A63] (H-PKPEAPK([γGlu-γGlu-C20 diacid])KDASPEELNRYYADARHYLNWLTRQR[NMeY]-NH2; N-terminus assumed) | 31.6 nM | inactive | –
5 | CC(C)C[C@H](NC(=O)[C@H](CC(=O)O)NC(=O)[C@H](CCCCN)NC(=O)[C@H](Cc1ccc(O)cc1)NC(=O)[C@H](Cc1ccc(O)cc1)NC(=O)[C@H](CCCNC(=N)N)NC(=O)[C@H](CC(=O)O)NC(=O)[C@H](Cc1c[nH]c2ccccc12)NC(=O)[C@H](CCC(=O)O)NC(=O)[C@H](CCCCN)NC(=O)[C@@H]1CCCN1C(=O)[C@H](CO)NC(=O)[C@H](C)NC(=O)[C@H](CC(=O)O)NC(=O)[C@H](CCC(=O)O)NC(=O)CNC(=O)[C@@H]1CCCN1C(=O)[C@H](CCCCNC(=O)CC[C@H](NC(=O)CC[C@H](NC(=O)CCCCCCCCCCCCCCCCCCC(=O)O)C(=O)O)C(=O)O)NC(=O)[C@H](CCC(=O)O)NC(=O)[C@@H]1CCCN1C(=O)[C@H](CCCCN)NC(=O)[C@@H]1CCCN1)C(=O)N[C@@H](CCCNC(=N)N)C(=O)N[C@@H](Cc1c[nH]cn1)C(=O)N[C@@H](Cc1ccc(O)cc1)C(=O)N[C@@H](CC(C)C)C(=O)N[C@@H](CC(N)=O)C(=O)N[C@@H](Cc1c[nH]c2ccccc12)C(=O)N[C@@H](CC(C)C)C(=O)N[C@H](C(=O)N[C@@H](CCCNC(=N)N)C(=O)N[C@@H](CCC(N)=O)C(=O)N[C@@H](CCCNC(=N)N)C(=O)N[C@@H](Cc1ccccc1)C(N)=O)[C@@H](C)O [Compound A78] | 0.0631 nM | – | 3.16 nM
